# Assay results from ChEMBL document CHEMBL3885881, “DrugMatrix”.
# Species: Rattus norvegicus
# Assay: DrugMatrix - Regimen: Daily Repeat
# Format: toxicity, organism-based, Sprague-Dawley
# Parameters: regimen Daily Repeat, gender Male, age 6-8 weeks
# Settings: in vivo, po, route oral GAVAGE, vehicle .5 % CMC; for ABSOLUTE BASOPHIL / ABSOLUTE EOSINOPHIL / ABSOLUTE LYMPHOCYTE / ABSOLUTE MONOCYTE / ABSOLUTE SEGMENTED NEUTROPHIL / BASOPHIL / EOSINOPHIL / ERYTHROCYTE COUNT / HEMATOCRIT / HEMOGLOBIN / LEUKOCYTE COUNT / LYMPHOCYTE / MEAN CORPUSCULAR HEMOGLOBIN / MEAN CORPUSCULAR HEMOGLOBIN CONCENTRATION / MEAN CORPUSCULAR VOLUME / MONOCYTE / NEUTROPHIL / NUCLEATED RED BLOOD CELLS / PLATELET COUNT: tissue Blood; for ALANINE AMINOTRANSFERASE / ALBUMIN / ALKALINE PHOSPHATASE / ASPARTATE AMINOTRANSFERASE / BLOOD UREA NITROGEN / CARBON DIOXIDE / CHLORIDE / CHOLESTEROL / CREATINE PHOSPHOKINASE / CREATININE / GLUCOSE / LACTATE DEHYDROGENASE / LIPASE / PHOSPHORUS / POTASSIUM / SODIUM / TOTAL BILIRUBIN / TOTAL PROTEIN / URIC ACID: tissue Plasma
# [1] = 0 mg/kg, 72 h, dose level Control, time 3 day
# [2] = 0 mg/kg, 120 h, dose level Control, time 5 day
# [3] = 75 mg/kg, 72 h, dose level High, time 3 day
smiles,measurement,setting,value
Cc1ccc(/N=C/N(C)/C=N/c2ccc(C)cc2C)c(C)c1 [AMITRAZ],ABSOLUTE BASOPHIL,[1],0 CELLS/uL
same,ABSOLUTE EOSINOPHIL,[1],0 CELLS/uL
same,ABSOLUTE LYMPHOCYTE,[1],12269.67 CELLS/uL
same,ABSOLUTE MONOCYTE,[1],160.33 CELLS/uL
same,ABSOLUTE SEGMENTED NEUTROPHIL,[1],970 CELLS/uL
same,BASOPHIL,[1],0%
same,EOSINOPHIL,[1],0%
same,ERYTHROCYTE COUNT,[1],5.76 x10E6/uL
same,HEMATOCRIT,[1],36.57%
same,HEMOGLOBIN,[1],14.22 G/DL
same,LEUKOCYTE COUNT,[1],13.4 x10E3/uL
same,LYMPHOCYTE,[1],91.67%
same,MEAN CORPUSCULAR HEMOGLOBIN,[1],24.67 pg
same,MEAN CORPUSCULAR HEMOGLOBIN CONCENTRATION,[1],38.85 G/DL
same,MEAN CORPUSCULAR VOLUME,[1],63.52 fL
same,MONOCYTE,[1],1.17%
same,NEUTROPHIL,[1],7.17%
same,NUCLEATED RED BLOOD CELLS,[1],0.33 /100WBC
same,PLATELET COUNT,[1],1250.83 x10E3/uL
same,ALANINE AMINOTRANSFERASE,[1],49.17 u/L
same,ALBUMIN,[1],4.33 G/DL
same,ALKALINE PHOSPHATASE,[1],378.5 u/L
same,ASPARTATE AMINOTRANSFERASE,[1],82.17 u/L
same,BLOOD UREA NITROGEN,[1],15 mg/dL
same,CARBON DIOXIDE,[1],34.33 mmol/L
same,CHLORIDE,[1],99.17 MEQ/L
same,CHOLESTEROL,[1],71.17 mg/dL
same,CREATINE PHOSPHOKINASE,[1],258.67 u/L
same,CREATININE,[1],0.18 mg/dL
same,GLUCOSE,[1],142.67 mg/dL
same,LACTATE DEHYDROGENASE,[1],154.33 u/L
same,LIPASE,[1],9 u/L
same,PHOSPHORUS,[1],11.67 mg/dL
same,POTASSIUM,[1],7.13 MEQ/L
same,SODIUM,[1],142.22 MEQ/L
same,TOTAL BILIRUBIN,[1],0.18 mg/dL
same,TOTAL PROTEIN,[1],5.77 G/DL
same,URIC ACID,[1],1.55 mg/dL
same,ABSOLUTE BASOPHIL,[2],0 CELLS/uL
same,ABSOLUTE EOSINOPHIL,[2],23.33 CELLS/uL
same,ABSOLUTE LYMPHOCYTE,[2],14943.67 CELLS/uL
same,ABSOLUTE MONOCYTE,[2],32 CELLS/uL
same,ABSOLUTE SEGMENTED NEUTROPHIL,[2],1084.33 CELLS/uL
same,BASOPHIL,[2],0%
same,EOSINOPHIL,[2],0.17%
same,ERYTHROCYTE COUNT,[2],5.71 x10E6/uL
same,HEMATOCRIT,[2],35.28%
same,HEMOGLOBIN,[2],14.27 G/DL
same,LEUKOCYTE COUNT,[2],16.08 x10E3/uL
same,LYMPHOCYTE,[2],93%
same,MEAN CORPUSCULAR HEMOGLOBIN,[2],25.02 pg
same,MEAN CORPUSCULAR HEMOGLOBIN CONCENTRATION,[2],40.43 G/DL
same,MEAN CORPUSCULAR VOLUME,[2],61.82 fL
same,MONOCYTE,[2],0.17%
same,NEUTROPHIL,[2],6.67%
same,NUCLEATED RED BLOOD CELLS,[2],0.33 /100WBC
same,PLATELET COUNT,[2],1274 x10E3/uL
same,ALANINE AMINOTRANSFERASE,[2],54.17 u/L
same,ALBUMIN,[2],4.22 G/DL
same,ALKALINE PHOSPHATASE,[2],373.17 u/L
same,ASPARTATE AMINOTRANSFERASE,[2],81.83 u/L
same,BLOOD UREA NITROGEN,[2],16.67 mg/dL
same,CARBON DIOXIDE,[2],30.33 mmol/L
same,CHLORIDE,[2],99 MEQ/L
same,CHOLESTEROL,[2],71 mg/dL
same,CREATINE PHOSPHOKINASE,[2],273.5 u/L
same,CREATININE,[2],0.22 mg/dL
same,GLUCOSE,[2],141.83 mg/dL
same,LACTATE DEHYDROGENASE,[2],153.67 u/L
same,LIPASE,[2],10.33 u/L
same,PHOSPHORUS,[2],11.38 mg/dL
same,POTASSIUM,[2],7.08 MEQ/L
same,SODIUM,[2],142.75 MEQ/L
same,TOTAL BILIRUBIN,[2],0.18 mg/dL
same,TOTAL PROTEIN,[2],6.1 G/DL
same,URIC ACID,[2],1.67 mg/dL
same,ABSOLUTE BASOPHIL,[3],0 CELLS/uL
same,ABSOLUTE EOSINOPHIL,[3],0 CELLS/uL
same,ABSOLUTE LYMPHOCYTE,[3],12442 CELLS/uL
same,ABSOLUTE MONOCYTE,[3],223 CELLS/uL
same,ABSOLUTE SEGMENTED NEUTROPHIL,[3],868.33 CELLS/uL
same,BASOPHIL,[3],0%
same,EOSINOPHIL,[3],0%
same,ERYTHROCYTE COUNT,[3],6.64 x10E6/uL
same,HEMATOCRIT,[3],42%
same,HEMOGLOBIN,[3],16.13 G/DL
same,LEUKOCYTE COUNT,[3],13.53 x10E3/uL
same,LYMPHOCYTE,[3],92.33%
same,MEAN CORPUSCULAR HEMOGLOBIN,[3],24.27 pg
same,MEAN CORPUSCULAR HEMOGLOBIN CONCENTRATION,[3],38.4 G/DL
same,MEAN CORPUSCULAR VOLUME,[3],63.23 fL
same,MONOCYTE,[3],1.67%
same,NEUTROPHIL,[3],6%
same,NUCLEATED RED BLOOD CELLS,[3],0 /100WBC
same,PLATELET COUNT,[3],1347.33 x10E3/uL
same,ALANINE AMINOTRANSFERASE,[3],35.67 u/L
same,ALBUMIN,[3],3.93 G/DL
same,ALKALINE PHOSPHATASE,[3],354 u/L
same,ASPARTATE AMINOTRANSFERASE,[3],84.33 u/L
same,BLOOD UREA NITROGEN,[3],20 mg/dL
same,CARBON DIOXIDE,[3],34.67 mmol/L
same,CHLORIDE,[3],101.67 MEQ/L
same,CHOLESTEROL,[3],49 mg/dL
same,CREATINE PHOSPHOKINASE,[3],285.33 u/L
same,CREATININE,[3],0.3 mg/dL
same,GLUCOSE,[3],211 mg/dL
same,LACTATE DEHYDROGENASE,[3],230 u/L
same,LIPASE,[3],8.33 u/L
same,PHOSPHORUS,[3],11.13 mg/dL
same,POTASSIUM,[3],6.26 MEQ/L
same,SODIUM,[3],146.5 MEQ/L
same,TOTAL BILIRUBIN,[3],0.23 mg/dL
same,TOTAL PROTEIN,[3],5.2 G/DL
same,URIC ACID,[3],1.83 mg/dL
